# Assay results reported in patent US10683294B2, “5-5 fused rings as C5a inhibitors” (CHEMOCENTRYX, INC., priority 2017, dated 2020).
# pIC50: −log10 of the molar value.
# Target: C5aR (Homo sapiens (Human), UniProt P21730)
# Assay: Chemotaxis assay (inhibition of C5aR mediated migration towards C5a)
# Type: cell-based
# Details: inhibition in the chemotaxis assay (Example 14 B.3); U937 or neutrophil cells, 0.03 nM C5a
# Description: U937 cells are a monocytic cell line which express C5aR, and are available from ATCC (VA). These cells were cultured as a suspension in RPMI-1640 medium supplemented with 2 mM L-glutamine, 1.5 g/L sodium bicarbonate, 4.5 g/L glucose, 10 mM HEPES, 1 mM sodium pyruvate, and 10% FBS. Cells were grown under 5% CO2/95% air, 100% humidity at 37° C. and subcultured twice weekly at 1:6 (cells were cultured at a density range of 1×10^5 to 2×10^6 cells/mL) and harvested at 1×10^6 cells/mL. Prior to assay, cells are treated overnight with 0.5 mM of cyclic AMP (Sigma, Ohio) and washed once prior to use. cAMP treated U937 cells can be used in C5aR ligand binding and functional assays.
# Optionally, human or murine neutrophils can be used to assay for compound activity. Neutrophils may be isolated from fresh human blood using density separation and centrifigation. Briefly, whole blood is incubated with equal parts 3% dextran and allowed to separate for 45 minutes. After separation, the top layer is layered on top of 15 mls of Ficoll (15 mls of Ficoll for every 30 mls of blood suspension) and centrifuged for 30 minutes at 400×g with no brake. The pellet at the bottom of the tube is then isolated and resuspended into PharmLyse RBC Lysis Buffer (BD Biosciences, San Jose, Calif.) after which the sample is again centrifuged for 10 minutes at 400×g with brake. The remaining cell pellet is resuspended as appropriate and consists of isolated neutrophils.
# Optionally, compounds may be further assayed for their ability to inhibit chemotaxis in cells. Chemotaxis assays are performed using 5 μm pore polycarbonate, polyvinylpyrrolidone-coated filters in 96-well chemotaxis chambers (Neuroprobe; Gaithersburg, Md.) using chemotaxis buffer (Hank's balanced salt solution (HBSS) and 1% FBS). C5aR ligands (i.e., C5a, R&D Systems; Minneapolis, Minn.) are use to evaluate compound mediated inhibition of C5aR mediated migration. Other chemokines (i.e., SDF-1α; R&D Systems; Minneapolis, Minn.) are used as specificity controls. The lower chamber is loaded with 29 μl of chemokine (i.e., 0.03 nM C5a) and varying amounts of compound; the top chamber contains 100,000 U937 or neutrophil cells in 20 μl. The chambers are incubated 1.5 hours at 37° C., and the number of cells in the lower chamber quantified either by direct cell counts in five high powered fields per well or by the CyQuant assay (Molecular Probes), a fluorescent dye method that measures nucleic acid content and microscopic observation.
# C5aR, sequence (P21730 whole entry): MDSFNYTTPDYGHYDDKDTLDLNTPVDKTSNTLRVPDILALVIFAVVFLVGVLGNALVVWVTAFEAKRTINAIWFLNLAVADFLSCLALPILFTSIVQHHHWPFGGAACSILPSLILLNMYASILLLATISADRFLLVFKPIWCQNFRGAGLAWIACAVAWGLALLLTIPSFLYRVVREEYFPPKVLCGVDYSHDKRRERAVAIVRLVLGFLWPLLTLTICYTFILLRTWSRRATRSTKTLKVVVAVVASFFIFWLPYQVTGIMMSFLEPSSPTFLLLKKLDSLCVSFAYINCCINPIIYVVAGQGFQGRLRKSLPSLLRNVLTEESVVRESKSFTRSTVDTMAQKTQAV
row,Compound,pIC50
1,Cc1cccc(C)c1-n1nc2c(c1-c1ccc3[nH]ccc3c1)CN(C(=O)OC(C)(C)C)C2=O [Compound 1.055],≤ 6.30
2,Cc1cccc(C)c1-n1nc2c(c1-c1ccc3[nH]ccc3c1)CN(C(=O)CCC1CCCC1)C2 [Compound 1.056],≤ 6.30
3,Cc1cccc(C)c1-n1nc2c(c1-c1ccc3[nH]ccc3c1)CN(C(=O)CC1CCCC1)C2 [Compound 1.057],≤ 6.30
4,Cc1cccc(C)c1-n1nc2c(c1-c1ccc3[nH]ncc3c1)CN(C(=O)OC(C)(C)C)C2 [Compound 1.058],≤ 6.30
5,Cc1cccc(C)c1-n1nc2c(c1-c1ccc3[nH]ccc3c1)CN(C(=O)C1CCCC1)C2 [Compound 1.059],≤ 6.30
6,Cc1cccc(C)c1-n1nc2c(c1-c1ccc3[nH]ccc3c1)CN(C(=O)C(C)C1CCCCC1)C2 (stereo not shown) [Compound 1.060],6.30 to 7.30
7,Cc1cccc(C)c1-n1nc2c(c1-c1ccc3[nH]ccc3c1)CN(C(=O)CC(C)(C)C)C2 [Compound 1.061],≤ 6.30
8,Cc1cccc(C)c1-n1nc2c(c1-c1ccc3[nH]ccc3c1)CN(C(=O)[C@@H](O)C(C)C)C2 [Compound 1.062],≤ 6.30
9,Cc1cccc(C)c1-n1nc2c(c1-c1ccc3[nH]ccc3c1)CN(S(=O)(=O)c1ccc(C(C)(C)C)cc1)C2 [Compound 1.063],≤ 6.30
10,Cc1cccc(C)c1-n1nc2c(c1-c1ccc3[nH]ccc3c1)CN(C(=O)c1ccc(C(C)(C)C)cc1)C2 [Compound 1.064],≤ 6.30
11,Cc1cccc(C)c1-n1nc2c(c1-c1ccc3[nH]ccc3c1)CN(C(=O)NC(C)(C)C)C2 [Compound 1.065],≤ 6.30
12,Cc1cccc(C)c1-n1nc2c(c1-c1ccc3[nH]ccc3c1)CN(C(=O)c1ccccc1)C2 [Compound 1.066],≤ 6.30
13,Cc1cccc(C)c1-n1nc2c(c1-c1ccc3[nH]ccc3c1)CN(C(=O)OC(C)(C)C)C2 [Compound 1.067],6.30 to 7.30
